# Where “and” joins values, the source holds several entries; their conditions need not be identical. Equal values may be shown once.
# How the values were obtained:
# OPM2 cells = assay: CCK8 cytotoxicity, OPM2 multiple myeloma cells; type: cell-based; settings: Homo sapiens, OPM-2, 72 h
# Protocol: (§1) (1) Cell lines: human multiple myeloma cells (H929 cells, OPM2 cells, U266 cells, OCI-MY5 cells, RPMI 8266 cells) (from ATCC of USA. The cells were passaged and preserved in the applicant's laboratory), were cultured in a 1640 culture medium (containing 10% fetus bovine serum).
# (§2) The cells were cultured in 1640 medium (containing 10% fetal bovine serum, pH 7.2) supplemented with 2 mmol/L glutamine. The cells were cultured in a cell culture incubator at 37° C., 5% CO2.
# (§3) A single-cell suspension of human multiple myeloma cells (H929 cells, OPM2 cells, U266 cells, OCI-MY5 cells, RPMI 8266 cells) was taken for cell counting, and the cell concentration was adjusted to 2×10^5 cells/mL. 95 μL of the above cell suspension was added into each well of a 96-well culture plate, and then 5 μL of the drug prepared with the medium was added at different concentrations, while the same volume of culture medium was added in the control group. Three parallel wells were set in each group. The plate was subjected to continuous culture for 72 h. 2 hours before the end of the culture, 10 μL of CCK8 reagent was added into each well, and the plate was continued to culture in a CO2 incubator. After 2 hours, the OD value of each well at 450 nm was detected by an automatic microplate reader. […]
# NU-DUL-1 cells = assay: CCK8 cytotoxicity, NU-DUL-1 lymphoma cells; type: cell-based; settings: Homo sapiens, 72 h
# Protocol: (§4) A single-cell suspension of human multiple myeloma cells (H929 cells, OPM2 cells, U266 cells, OCI-MY5 cells, RPMI 8266 cells) was taken for cell counting, and the cell concentration was adjusted to 2×10^5 cells/mL. 95 μL of the above cell suspension was added into each well of a 96-well culture plate, and then 5 μL of the drug prepared with the medium was added at different concentrations, while the same volume of culture medium was added in the control group. Three parallel wells were set in each group. The plate was subjected to continuous culture for 72 h. 2 hours before the end of the culture, 10 μL of CCK8 reagent was added into each well, and the plate was continued to culture in a CO2 incubator. After 2 hours, the OD value of each well at 450 nm was detected by an automatic microplate reader. Cell viability and inhibition rate were calculated: cell viability (%)=(OD mean of experimental well/OD mean of control well)×100%. Cell inhibition rate (%)=100%−cell viability (%). The fitting function was used to determine the IC50 of the drug concentration when the cell growth was inhibited by 50%. The experiment was in triplicate.
# (§5) Cell lines: human lymphoma cells (SUDHL-4 cells, OCI-LY1 cells, OCI-LY8 cells, DB cells, NU-DUL-1 cells, U2932 cells, TMD8 cells)(from ATCC. USA. The cells were passaged and preserved in the applicant's laboratory). IMDM (Gibco Co., USA). […]
# RPMI 8266 cells = assay: CCK8 cytotoxicity, RPMI 8266 multiple myeloma cells; type: cell-based; settings: Homo sapiens, RPMI8266, 72 h
# Protocol: as §1, §2, §3
# [1] = biological target: T1, Ribonucleotide reductase (RR) (Homo sapiens, UniProt P31350); settings: shown in studies; cited from earlier work
# T1 sequence (P31350 1-389): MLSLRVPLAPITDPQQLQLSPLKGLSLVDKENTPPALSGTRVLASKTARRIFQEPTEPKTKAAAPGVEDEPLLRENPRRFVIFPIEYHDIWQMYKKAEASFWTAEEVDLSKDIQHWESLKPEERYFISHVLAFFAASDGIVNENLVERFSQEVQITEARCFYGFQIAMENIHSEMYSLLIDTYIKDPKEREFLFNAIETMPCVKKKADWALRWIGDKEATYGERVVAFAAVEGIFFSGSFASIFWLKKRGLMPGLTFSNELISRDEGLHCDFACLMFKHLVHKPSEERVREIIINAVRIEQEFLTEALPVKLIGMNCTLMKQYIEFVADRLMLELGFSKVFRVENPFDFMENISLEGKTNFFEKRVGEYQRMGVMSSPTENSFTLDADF
# OCI-LY8 cells = assay: CCK8 cytotoxicity, OCI-LY8 lymphoma cells; type: cell-based; settings: Homo sapiens, 72 h
# Protocol: as §4, §5
# H929 cells = assay: Animal experiment for multiple myeloma: subcutaneous H929 tumors in nude mice; type: in vivo, BALB/C nude mice; settings: caudal vein
# Protocol: (1) Cell line: human multiple myeloma cells (H929 cells) (from ATCC, USA. The cells were passaged and preserved in the applicant's laboratory), were cultured in a 1640 culture medium (containing 10% fetus bovine serum).
# (2) Experimental animals: Male BALB/C nude mice (4-6 week old, purchased from Shanghai Sippr-BK laboratory animal Co. Ltd), were housed in an SPF condition (Center Laborotory Animal Room, Shanghai Tenth People's Hospital).
# The cells were cultured in 1640 a 1640 culture medium (containing 10% fetus bovine serum, pH 7.2) supplemented with 2 mmol/L glutamine. The resultant was cultured in a incubator at 37° C. under 5% CO2 environment.
# The 1640 medium containing 3.5×10^6 H929 cells was injected subcutaneously into the right axilla of the nude mice, and when the tumors grew to a measurable size, the mice were randomly assigned into the control group and the administration group. The nude mice in the administration group were injected through caudal vein with 4-hydroxy salicylanilide at 50 mg/kg and 100 mg/kg per day. The nude mice in the control group were injected with the same volume of solvent (200 μL, 5% DMSO+4% castor oil+91% normal saline). The tumor sizes were measured every two days (measuring the length and width of the tumor, tumor volume=0.5×(width)^2×length). The mice were sacrificed after a 22-day administration and the tumors were taken for taking photos.
smiles,measurement,setting,value
O=C(Nc1ccc(O)cc1)c1ccccc1O,IC50,OPM2 cells,84 µM
same,IC50,NU-DUL-1 cells,188 µM
same,IC50,RPMI 8266 cells,170 µM
same,Inhibition of Ribonucleotide reductase (in words),[1],inhibitor
same,IC50,OCI-LY8 cells,76 µM
same,"Tumor volume, individual mice No. 1-4","H929 cells; 50 mg/kg per day, day 0",0.08 cm^3 (2×) and 0.11 cm^3 and 0.10 cm^3
same,"Tumor volume, mean","H929 cells; 50 mg/kg per day, day 0",0.10 cm^3
same,"Tumor volume, individual mice No. 1-4","H929 cells; 50 mg/kg per day, day 2",0.15 cm^3 (2×) and 0.17 cm^3 and 0.11 cm^3
same,"Tumor volume, mean","H929 cells; 50 mg/kg per day, day 2",0.15 cm^3
same,"Tumor volume, individual mice No. 1-4","H929 cells; 50 mg/kg per day, day 4",0.24 cm^3 and 0.25 cm^3 and 0.22 cm^3 and 0.14 cm^3
same,"Tumor volume, mean","H929 cells; 50 mg/kg per day, day 4",0.21 cm^3
same,"Tumor volume, individual mice No. 1-4","H929 cells; 50 mg/kg per day, day 6",0.38 cm^3 (2×) and 0.30 cm^3 and 0.27 cm^3
same,"Tumor volume, mean","H929 cells; 50 mg/kg per day, day 6",0.33 cm^3
same,"Tumor volume, individual mice No. 1-4","H929 cells; 50 mg/kg per day, day 8",0.58 cm^3 and 0.50 cm^3 and 0.37 cm^3 (2×)
same,"Tumor volume, mean","H929 cells; 50 mg/kg per day, day 8",0.45 cm^3
same,"Tumor volume, individual mice No. 1-4","H929 cells; 50 mg/kg per day, day 10",0.77 cm^3 and 0.63 cm^3 and 0.64 cm^3 and 0.49 cm^3
same,"Tumor volume, mean","H929 cells; 50 mg/kg per day, day 10",0.63 cm^3
same,"Tumor volume, individual mice No. 1-4","H929 cells; 50 mg/kg per day, day 12",0.99 cm^3 and 0.78 cm^3 and 0.80 cm^3 and 0.74 cm^3
same,"Tumor volume, mean","H929 cells; 50 mg/kg per day, day 12",0.83 cm^3
same,"Tumor volume, individual mice No. 1-4","H929 cells; 50 mg/kg per day, day 14",1.20 cm^3 and 1.15 cm^3 and 0.97 cm^3 and 1.03 cm^3
same,"Tumor volume, mean","H929 cells; 50 mg/kg per day, day 14",1.09 cm^3
same,"Tumor volume, individual mice No. 1-4","H929 cells; 50 mg/kg per day, day 16",1.53 cm^3 and 1.47 cm^3 and 1.31 cm^3 and 1.35 cm^3
same,"Tumor volume, mean","H929 cells; 50 mg/kg per day, day 16",1.41 cm^3
same,"Tumor volume, individual mice No. 1-4","H929 cells; 50 mg/kg per day, day 18",2.08 cm^3 and 1.81 cm^3 and 1.54 cm^3 and 1.71 cm^3
same,"Tumor volume, mean","H929 cells; 50 mg/kg per day, day 18",1.79 cm^3
same,"Tumor volume, individual mice No. 1-4","H929 cells; 50 mg/kg per day, day 20",2.59 cm^3 and 2.22 cm^3 and 1.77 cm^3 and 2.12 cm^3
same,"Tumor volume, mean","H929 cells; 50 mg/kg per day, day 20",2.17 cm^3
same,"Tumor volume, individual mice No. 1-4","H929 cells; 50 mg/kg per day, day 22",3.39 cm^3 and 2.44 cm^3 and 2.19 cm^3 and 2.89 cm^3
same,"Tumor volume, mean","H929 cells; 50 mg/kg per day, day 22",2.72 cm^3
same,"Tumor volume, individual mice No. 1-4","H929 cells; 100 mg/kg per day, day 0",0.10 cm^3 and 0.08 cm^3 and 0.04 cm^3 and 0.07 cm^3
same,"Tumor volume, mean","H929 cells; 100 mg/kg per day, day 0",0.07 cm^3

# Reference: patent publication US20190060330A1, “APPLICATION OF 4-HYDROXY SALICYLANILIDE IN PREPARATION OF ANTI-MYELOMA OR ANTI-LYMPHOMA DRUGS” (priority 2016, published 2019)
